Read-outs that look alike come from different tables or passages of the source.
Experiments:
[1] = system: ventral prostate and levator ani of immature castrated male Sprague Dawley rats; assay: Ventral Prostate and Levator ani Weight in vivo Assay (agonist activity); parameters: key to % Prostate Stimulation / % levator ani Stimulation: level 1 agonist active if it produced greater than or equal to 30% stimulation of levator ani or ventral prostate at 30 mg/kg; level 2 agonist active if it produced greater than or equal to 5% but less than 30% stimulation of levator ani or ventral prostate at 30 mg/kg; listed herein as “inactive” as they did not meet the specified criteria defined above; settings: once daily for five days, oral, vehicle = 0%, testosterone propionate = 100%, criteria at 30 mg/kg; for change in vivo at 30 mg/kg: Rattus norvegicus, 120 h
Method: Immature (approximately 50 g) castrated male Sprague Dawley rats (Charles River) were treated once daily for five days with test compound ([…], in 30% cyclodextrin or 0.5% methylcellulose vehicle), or with testosterone propionate (administered subcutaneously by injection at the nape of the neck at 5 mg/kg, in a volume of 0.1 mL in sesame oil), or with vehicle (1 mL of 30% cyclodextrin or 0.5% methylcellulose, given orally). On the sixth day, the rats were euthanized by asphyxiation in carbon dioxide. Ventral prostates and levator ani. muscle were removed and their wet weights determined.
Test compound activity was determined as the percent stimulation of tissue weight, with the vehicle-treated control group set to zero percent and the testosterone alone-treated control group set to 100%.

[2] = system: ventral prostate and seminal vesicle of immature castrated male Sprague Dawley rats; assay: Ventral Prostate and Seminal Vesicle Weight in vivo Assay (antagonist activity, with testosterone propionate); parameters: key to Inhibition of prostate (non-weight prostate weight, mg) / Inhibition of seminal vesicle (non-weight seminal vesicle weight, mg): level 1 agonist active if it produced greater than or equal to 30% stimulation of levator ani or ventral prostate at 30 mg/kg; level 2 agonist active if it produced greater than or equal to 5% but less than 30% stimulation of levator ani or ventral prostate at 30 mg/kg; listed herein as “inactive” as they did not meet the specified criteria defined above; settings: test compound oral plus testosterone propionate 2 mg/kg s.c., five days, criteria at 30 mg/kg; for inhibition in vivo at 30 mg/kg: Rattus norvegicus, 120 h
Method: Immature (approximately 50 g) castrated male Sprague Dawley rats (Charles River) were treated once daily for five days with test compound ([…], in 30% cyclodextrin or 0.5% methylcellulose vehicle) and with testosterone propionate (given subcutaneously by injection at the nape of the neck at 2 mg/kg, in a volume of 0.1 mL in sesame oil). On the sixth day, the rats were euthanized by asphyxiation in carbon dioxide. Ventral prosatates and seminal vesicles were removed and their wet weights determined. Test compound activity was determined as the percent inhibition of testosterone-enhanced tissue weights, with a vehicle-treated control group set to zero percent and a testosterone alone-treated control group set to 100%.

[3] = seminal vesicle wet weight, read-out: Inhibition of seminal vesicle (non-weight seminal vesicle weight, mg)
[4] = levator ani wet weight, read-out: % levator ani Stimulation
[5] = ventral prostate wet weight, read-out: % Prostate Stimulation
[6] = ventral prostate wet weight, read-out: Inhibition of prostate (non-weight prostate weight, mg)
[7] = levator ani wet weight, 30 mg/kg
[8] = ventral prostate wet weight, 30 mg/kg

SMILES | % levator ani Stimulation ([1]; levator ani wet weight) | % Prostate Stimulation ([1]; ventral prostate wet weight) | inhibition in vivo at 30 mg/kg [2, 3] [%] | Inhibition of prostate (non-weight prostate weight, mg) ([2]; ventral prostate wet weight) | change in vivo at 30 mg/kg [1, 4] [%] | change in vivo at 30 mg/kg [1, 5] [%] | inhibition in vivo at 30 mg/kg [2, 6] [%] | Inhibition of seminal vesicle (non-weight seminal vesicle weight, mg) ([2]; seminal vesicle wet weight) | % levator ani Stimulation [1, 7] | % Prostate Stimulation [1, 8]
CC12CC=NN1C(N)=N/C2=N\c1ccc(C#N)c(C(F)(F)F)c1 (stereo not shown) [Compound 6, 4-(6-Amino-3a-methyl-3,3a-dihydro-imidazo[1,5-b]pyrazol-4-ylideneamino)-2-trifluoromethyl-benzonitrile] | inactive | inactive | 5 to 30 | inactive | – | – | – | – | – | –
CCC12CC(C(F)(F)F)=NN1C(N)=N/C2=N\c1ccc(C#N)c(C(F)(F)F)c1 (stereo not shown) [Compound 8, 4-(6-Amino-3a-ethyl-2-trifluoromethyl-3,3a-dihydro-imidazo[1,5-b]pyrazol-4-ylideneamino)-2-trifluoromethyl-benzonitrile] | – | – | 5 to 30 | inactive | 5 to 30 | 5 to 30 | – | – | – | –
CCOC(=O)C1=NN2C(N)=N/C(=N\c3ccc(C#N)c(C(F)(F)F)c3)C2(C)C1 (stereo not shown) [Compound 7, 6-Amino-4-(4-cyano-3-trifluoromethyl-phenylimino)-3a-methyl-3a,4-dihydro-3H-imidazo[1,5-b]pyrazole-2-carboxylic acid ethyl ester] | – | – | 5 to 30 | inactive | 5 to 30 | 5 to 30 | – | – | – | –
C[C@]12CC(C(F)(F)F)=NN1C(NC(=O)Nc1ccc(I)cc1)=N/C2=N\c1ccc(C#N)c(C(F)(F)F)c1 [Compound 14, 1-[4-(4-Cyano-3-trifluoromethyl-phenylimino)-3aR-methyl-2-trifluoromethyl-3a,4-dihydro-3H-imidazo[1,5-b]pyrazol-6-yl]-3-(4-iodo-phenyl)-urea] | – | – | – | – | ≥ 30 | 5 to 30 | 5 to 30 | inactive | – | –
CC12CC(C(F)(F)F)=NN1C(N)=N/C2=N\c1ccc(C#N)c(C(F)(F)F)c1 (stereo not shown) [Compound 1, 4-(6-Amino-3a-methyl-2-trifluoromethyl-3,3a-dihydro-imidazo[1,5-b]pyrazol-4-ylideneamino)-2-trifluoromethyl-benzonitrile] | – | – | ≥ 30 | – | ≥ 30 | ≥ 30 | 5 to 30 | – | – | –
CC12CC(C(F)(F)F)=NN1C(=N)O/C2=N\c1ccc(C#N)c(C(F)(F)F)c1 (stereo not shown) [Compound 15, 4-(6-Imino-3a-methyl-2-trifluoromethyl-3,3a-dihydro-pyrazolo[1,5-c]oxazol-4-ylideneamino)-2-trifluoromethyl-benzonitrile] | – | – | 5 to 30 | – | ≥ 30 | 5 to 30 | 5 to 30 | – | – | –
C[C@@]12CC(C(F)(F)F)=NN1C(N)=NC2=Nc1ccc(C#N)c(C(F)(F)F)c1.O [Compound 18, 4-(6-Amino-3aS-methyl-2-trifluoromethyl-3,3a-dihydro-imidazo[1,5-b]pyrazol-4-ylideneamino)-2-trifluoromethyl-benzonitrile-Hydrates] | – | – | – | inactive | – | – | – | inactive | level 2 (level 2 agonist active if it produced greater than or equal to 5% but less than 30% stimulation of levator ani or ventral prostate at 30 mg/kg) | inactive
CC12CC(c3c(F)c(F)c(F)c(F)c3F)=NN1C(N)=N/C2=N\c1ccc(C#N)c(C(F)(F)F)c1 (stereo not shown) [Compound 11, 4-(6-Amino-3a-methyl-2-pentafluorophenyl-3,3a-dihydro-imidazo[1,5-b]pyrazol-4-ylideneamino)-2-trifluoromethyl-benzonitrile] | – | – | – | – | 5 to 30 | 5 to 30 | – | – | – | –
C[C@@]12CC(C(F)(F)F)=NN1C(N)=NC2=Nc1ccc(C#N)c(C(F)(F)F)c1.O [Compound 21, 4-(6-Amino-3aS-methyl-2-trifluoromethyl-3,3a-dihydro-imidazo[1,5-b]pyrazol-4-ylideneamino)-2-trifluoromethyl-benzonitrile-Hydrates] | – | – | – | level 1 (level 1 antagonist active if it produced greater than or equal to 30% inhibition of ventral prostate or seminal vesicle at 30 mg/kg) | – | – | – | level 1 (level 1 antagonist active if it produced greater than or equal to 30% inhibition of ventral prostate or seminal vesicle at 30 mg/kg) | level 1 (level 1 agonist active if it produced greater than or equal to 30% stimulation of levator ani or ventral prostate at 30 mg/kg) | level 1 (level 1 agonist active if it produced greater than or equal to 30% stimulation of levator ani or ventral prostate at 30 mg/kg)
C[C@@]12CC(C(F)(F)F)=NN1C(N)=N/C2=N\c1ccc(C#N)c(C(F)(F)F)c1 [Compound 3, 4-(6-Amino-3aS-methyl-2-trifluoromethyl-3,3a-dihydro-imidazo[1,5-b]pyrazol-4-ylideneamino)-2-trifluoromethyl-benzonitrile] | – | – | 5 to 30 | – | ≥ 30 | 5 to 30 | ≥ 30 | – | – | –
C[C@]12CC(C(F)(F)F)=NN1C(N)=NC2=Nc1ccc(C#N)c(C(F)(F)F)c1.O [Compound 17, 4-(6-Amino-3aR-methyl-2-trifluoromethyl-3,3a-dihydro-imidazo[1,5-b]pyrazol-4-ylideneamino)-2-trifluoromethyl-benzonitrile-Hydrates] | – | – | – | inactive | – | – | – | leve 1 | level 1 (level 1 agonist active if it produced greater than or equal to 30% stimulation of levator ani or ventral prostate at 30 mg/kg) | level 2 (level 2 agonist active if it produced greater than or equal to 5% but less than 30% stimulation of levator ani or ventral prostate at 30 mg/kg)
CC12CC(C(F)(F)F)=NN1C(N)=N/C2=N\c1ccc(Br)c(C(F)(F)F)c1 (stereo not shown) [Compound 10, 4-(4-Bromo-3-trifluoromethyl-phenylimino)-3a-methyl-2-trifluoromethyl-3a,4-dihydro-3H-imidazo[1,5-b]pyrazol-6-ylamine] | inactive | inactive | 5 to 30 | – | – | – | 5 to 30 | – | – | –
CC12CC(C(F)(F)F)=NN1C(N)=N/C2=N\c1ccc(Cl)c(Cl)c1 (stereo not shown) [Compound 4, 4-(3,4-Dichloro-phenylimino)-3a-methyl-2-trifluoromethyl-3a,4-dihydro-3H-imidazo[1,5-b]pyrazol-6-ylamine] | inactive | inactive | 5 to 30 | – | – | – | 5 to 30 | – | – | –
CCc1c(/N=C2\N=C(N)N3N=C(C(F)(F)F)CC23C)ccc(C#N)c1C(F)(F)F (stereo not shown) [Compound 9, 4-(6-Amino-3a-methyl-2-trifluoromethyl-3,3a-dihydro-imidazo[1,5-b]pyrazol-4-ylideneamino)-3-ethyl-2-trifluoromethyl-benzonitrile] | – | – | ≥ 30 | – | 5 to 30 | 5 to 30 | 5 to 30 | – | – | –
CC12CC(C(F)(F)F)=NN1C(N)=N/C2=N\c1ccc([N+](=O)[O-])c(C(F)(F)F)c1 (stereo not shown) [Compound 5, 3a-Methyl-4-(4-nitro-3-trifluoromethyl-phenylimino)-2-trifluoromethyl-3a,4-dihydro-3H-imidazo[1,5-b]pyrazol-6-ylamine] | inactive | inactive | ≥ 30 | inactive | – | – | – | – | – | –

— patent publication US7655683B2, “Imidazolopyrazole derivatives useful as selective androgen receptor modulators” (Janssen Pharmaceutica NV, priority 2006, dated 2010)
